{
  "source": "PubChem BioAssay (NCI)",
  "assay_in_all_cases": "NCI-60 cell line screen, 384-well format",
  "key": {"RXF 393 renal": {"tested_on": "RXF 393 renal"}, "BT-549 breast": {"tested_on": "BT-549 breast"}, "MCF7 breast": {"tested_on": "MCF7 breast"}, "OVCAR-8 ovarian": {"tested_on": "OVCAR-8 ovarian"}, "SF-295 CNS": {"tested_on": "SF-295 CNS"}, "SN12C renal": {"tested_on": "SN12C renal"}, "NCI/ADR-RES ovarian": {"tested_on": "NCI/ADR-RES ovarian"}, "HS 578T breast": {"tested_on": "HS 578T breast"}, "CCRF-CEM leukemia": {"tested_on": "CCRF-CEM leukemia"}, "MALME-3M melanoma": {"tested_on": "MALME-3M melanoma"}, "NCI-H226 lung": {"tested_on": "NCI-H226 lung"}, "M14 melanoma": {"tested_on": "M14 melanoma"}, "OVCAR-3 ovarian": {"tested_on": "OVCAR-3 ovarian"}, "NCI-H23 lung": {"tested_on": "NCI-H23 lung"}, "UACC-62 melanoma": {"tested_on": "UACC-62 melanoma"}, "SW-620 colon": {"tested_on": "SW-620 colon"}, "ACHN renal": {"tested_on": "ACHN renal"}, "HOP-92 NSCLC": {"tested_on": "HOP-92 NSCLC"}, "SK-MEL-5 melanoma": {"tested_on": "SK-MEL-5 melanoma"}, "A498 renal": {"tested_on": "A498 renal"}, "A549 NSCLC": {"tested_on": "A549 NSCLC"}, "IGROV1 ovarian": {"tested_on": "IGROV1 ovarian"}, "UACC-257 melanoma": {"tested_on": "UACC-257 melanoma"}, "HCC-2998 colon": {"tested_on": "HCC-2998 colon"}, "SF-539 CNS": {"tested_on": "SF-539 CNS"}, "SF-268 CNS": {"tested_on": "SF-268 CNS"}, "RPMI-8226 leukemia": {"tested_on": "RPMI-8226 leukemia"}, "MDA-MB-468 breast": {"tested_on": "MDA-MB-468 breast"}},
  "note": "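GI50 marks 50% less growth. TGI marks complete inhibition of growth.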",
  "data": [
    {"smiles": "CN(C)CC(C)(CN(C)C)C(=O)/C=C/c1c(Cl)cccc1Cl", "values": [
      {"measurement": "TGI", "setting": "RXF 393 renal", "result": 3590, "unit": "nM"},
      {"measurement": "GI50", "setting": "BT-549 breast", "result": 2520, "unit": "nM"},
      {"measurement": "TGI", "setting": "BT-549 breast", "result": 5730, "unit": "nM"},
      {"measurement": "GI50", "setting": "MCF7 breast", "result": 512, "unit": "nM"},
      {"measurement": "TGI", "setting": "MCF7 breast", "result": 1760, "unit": "nM"},
      {"measurement": "GI50", "setting": "OVCAR-8 ovarian", "result": 1950, "unit": "nM"},
      {"measurement": "TGI", "setting": "OVCAR-8 ovarian", "result": 3410, "unit": "nM"},
      {"measurement": "GI50", "setting": "SF-295 CNS", "result": 11400, "unit": "nM"},
      {"measurement": "TGI", "setting": "SF-295 CNS", "result": 23600, "unit": "nM"},
      {"measurement": "GI50", "setting": "SN12C renal", "result": 1880, "unit": "nM"},
      {"measurement": "TGI", "setting": "SN12C renal", "result": 3290, "unit": "nM"},
      {"measurement": "GI50", "setting": "NCI/ADR-RES ovarian", "result": 2140, "unit": "nM"},
      {"measurement": "TGI", "setting": "NCI/ADR-RES ovarian", "result": 3820, "unit": "nM"},
      {"measurement": "GI50", "setting": "HS 578T breast", "result": 2170, "unit": "nM"},
      {"measurement": "TGI", "setting": "HS 578T breast", "result": 4240, "unit": "nM"},
      {"measurement": "GI50", "setting": "CCRF-CEM leukemia", "result": 1580, "unit": "nM"},
      {"measurement": "TGI", "setting": "CCRF-CEM leukemia", "result": 2960, "unit": "nM"},
      {"measurement": "GI50", "setting": "MALME-3M melanoma", "result": 2160, "unit": "nM"},
      {"measurement": "TGI", "setting": "MALME-3M melanoma", "result": 3610, "unit": "nM"},
      {"measurement": "GI50", "setting": "NCI-H226 lung", "result": 1760, "unit": "nM"},
      {"measurement": "TGI", "setting": "NCI-H226 lung", "result": 3340, "unit": "nM"},
      {"measurement": "GI50", "setting": "M14 melanoma", "result": 2090, "unit": "nM"},
      {"measurement": "TGI", "setting": "M14 melanoma", "result": 4000, "unit": "nM"},
      {"measurement": "GI50", "setting": "OVCAR-3 ovarian", "result": 1910, "unit": "nM"},
      {"measurement": "TGI", "setting": "OVCAR-3 ovarian", "result": 3370, "unit": "nM"},
      {"measurement": "GI50", "setting": "NCI-H23 lung", "result": 2470, "unit": "nM"},
      {"measurement": "TGI", "setting": "NCI-H23 lung", "result": 5040, "unit": "nM"},
      {"measurement": "GI50", "setting": "UACC-62 melanoma", "result": 2160, "unit": "nM"},
      {"measurement": "TGI", "setting": "UACC-62 melanoma", "result": 4200, "unit": "nM"},
      {"measurement": "GI50", "setting": "SW-620 colon", "result": 2010, "unit": "nM"},
      {"measurement": "TGI", "setting": "SW-620 colon", "result": 3480, "unit": "nM"},
      {"measurement": "GI50", "setting": "ACHN renal", "result": 1880, "unit": "nM"},
      {"measurement": "TGI", "setting": "ACHN renal", "result": 3310, "unit": "nM"},
      {"measurement": "GI50", "setting": "HOP-92 NSCLC", "result": 2170, "unit": "nM"},
      {"measurement": "TGI", "setting": "HOP-92 NSCLC", "result": 3650, "unit": "nM"},
      {"measurement": "GI50", "setting": "SK-MEL-5 melanoma", "result": 1390, "unit": "nM"},
      {"measurement": "TGI", "setting": "SK-MEL-5 melanoma", "result": 2980, "unit": "nM"},
      {"measurement": "GI50", "setting": "A498 renal", "result": 2290, "unit": "nM"},
      {"measurement": "TGI", "setting": "A498 renal", "result": 4600, "unit": "nM"},
      {"measurement": "GI50", "setting": "A549 NSCLC", "result": 3720, "unit": "nM"},
      {"measurement": "TGI", "setting": "A549 NSCLC", "result": 13200, "unit": "nM"},
      {"measurement": "GI50", "setting": "IGROV1 ovarian", "result": 1870, "unit": "nM"},
      {"measurement": "TGI", "setting": "IGROV1 ovarian", "result": 3360, "unit": "nM"},
      {"measurement": "GI50", "setting": "UACC-257 melanoma", "result": 1950, "unit": "nM"},
      {"measurement": "TGI", "setting": "UACC-257 melanoma", "result": 3810, "unit": "nM"},
      {"measurement": "GI50", "setting": "HCC-2998 colon", "result": 2240, "unit": "nM"},
      {"measurement": "TGI", "setting": "HCC-2998 colon", "result": 6900, "unit": "nM"},
      {"measurement": "GI50", "setting": "SF-539 CNS", "result": 1900, "unit": "nM"},
      {"measurement": "TGI", "setting": "SF-539 CNS", "result": 3330, "unit": "nM"},
      {"measurement": "GI50", "setting": "SF-268 CNS", "result": 5610, "unit": "nM"},
      {"measurement": "TGI", "setting": "SF-268 CNS", "result": 15800, "unit": "nM"},
      {"measurement": "GI50", "setting": "RPMI-8226 leukemia", "result": 200, "unit": "nM"},
      {"measurement": "TGI", "setting": "RPMI-8226 leukemia", "result": 346, "unit": "nM"},
      {"measurement": "GI50", "setting": "MDA-MB-468 breast", "result": 2100, "unit": "nM"},
      {"measurement": "TGI", "setting": "MDA-MB-468 breast", "result": 3590, "unit": "nM"}
    ]}
  ]
}
